Results published in patent US20210177779A1, “COMBINATIONS OF OPIOIDS AND N-ACYLETHANOLAMINES” (SciSparc Ltd., priority 2015, published 2021).

How the values were obtained:
Mice, strain ICR [1] = experiment: Tail pinch test (modified Haffner's method); conditions: first test 15 min after dosing
Mice, strain ICR [2] = experiment: Open field (OF) test, 15 minute session of spontaneous activity
Protocol: Open Field (OF) tests were performed as follows—Fifteen minutes after test item/vehicle administration, mice were placed at the center of an open field box (43×43×40 cm) between 9 AM and 5 PM. On each side of the open field box, two frames placed at 2 and 5 cm height with 16 photocell beams per side ensure movement detection. The computer defined grid lines that divided the open field into two compartments: margin and center. Several variables were recorded during a 15 minute session of spontaneous activity including: time spent moving, traveled distance, time spent and number of visits to the central compartment.

## COc1ccc2c3c1O[C@H]1C(=O)CC[C@@]4(O)[C@@H](C2)N(C)CC[C@]314 [oxycodone]
Mice, strain ICR [1]; high dose oxycodone 10 mg/kg IP (PEA 25 mg/kg where combined), FIG. 3A
  Time after administration at which the analgesic effect began: 15 min
Mice, strain ICR [1]; low dose oxycodone 5 mg/kg IP (PEA 25 mg/kg where combined), FIG. 3B
  Time after administration at which the analgesic effect began: 15 min
Mice, strain ICR [2]; oxycodone 10 mg/kg IP (PEA 25 mg/kg where combined), dosed 15 min before test, 6M P<0.001, 8M P<0.05, FIG. 1, associated with irritation level
  Total distance traveled compared to vehicle control group (1M): significantly higher
Mice, strain ICR [2]; oxycodone 10 mg/kg IP (PEA 25 mg/kg where combined), total distance (cm) / total moving time (sec), 6M P<0.001, 8M P<0.05, FIG. 2, associated with uncontrolled movement and confusion
  Average animal velocity compared to vehicle control group (1M): significantly higher
Mice, strain ICR [2]; oxycodone 5 and 10 mg/kg IP compared to vehicle 1M, FIG. 1
  Total distance traveled, effect of oxycodone (dose-dependent): significantly increased
Mice, strain ICR [2]; oxycodone 5 and 10 mg/kg IP compared to vehicle 1M, FIG. 2
  Average animal velocity, effect of oxycodone (dose-dependent): significantly increased
